Experimental data reported in US11685726B2, “Pharmaceutical compositions of 6-(2-(2H-tetrazol-5-yl)ethyl)-6-fluorodecahydroisoquinoline-3-carboxylic acid and ester derivatives thereof” (Sea Pharmaceuticals LLC, priority 2020, dated 2023).

Key:
[1] = system: 6 Hz psychomotor seizure model in mice; assay: 6 Hz psychomotor seizure model in mice; format: in vivo, mouse; conditions: DMC
Source text: Adult male Carworth Farms (CF-1) mice (25-35 g) or young male Sprague-Dawley (SD) rats (100-150 g) were obtained from Charles River Laboratories Inc (Wilmington Mass. USA). CF1 mice were typically used for the 6 Hz psychomotor seizure model (6 Hz model described in the section below) but could also be used for the Maximal electroshock seizure (MES) model if performed in mice (Maximal electroshock seizure model described in the section below). SD rats were typically used for MES model but could also be used for 6 Hz psychomotor model if performed in rats. Animals were allowed free access to food and water, except during testing periods. After delivery from supplier lab to the in vivo pharmacology testing lab, animals were allowed sufficient time to acclimate to housing conditions prior to testing. Animals were housed in plastic cages in rooms with controlled humidity, ventilation, and lighting (12 hours lights on and 12 hours darkness). The animals were housed and fed in a manner consistent with the recommendations in the “Guide for Care and Use of Laboratory Animals” (National Research Council), and in accordance with guidelines set by an Institutional Animal Care and Use Committee (IACUC). Animal experiments were conducted in a manner consistent with Animal Research: Reporting of In Vivo Experiments (ARRIVE) guidelines (UK) and were approved by an IACUC. Test compounds or respective vehicle (placebo) were administered using an optimal fluid volume-to-body fluid ratio. Solutions or suspensions of test compounds, reference compounds or vehicles were administered to mice or rats in a volume of 0.01 mL/g body weight (mice) or 0.004 mL/g body weight (rats) by subcutaneous (s.c.) injection, intraperitoneal (i.p.) injection or by oral gavage (p.o.) unless otherwise indicated. Reference drug Levetiracetam or vehicle was administered by intraperitoneal (i.p.) injection.
Mice are given a topical anesthetic on the cornea of each eye prior to placement of corneal electrodes. 6 Hz psychomotor seizures were induced in mice (usually 8 animals per group) using electrical stimulation via corneal electrodes (6 Hz, 0.2 millisecond rectangular pulse, 3 second duration at 22 mA using a Grass 48 stimulator instrument as described in Barton M E et al 2001. Epilepsy Res 47:217-227). Prior to placement of corneal electrodes for electrical stimulation 0.5% tetracaine in saline (Sigma) drops were applied to each eye. Seizures and behaviors that arise from the electrical stimulus in the 6 Hz model include a minor clonic seizure phase followed by stereotyped automatistic behaviors including stun, forelimb clonus, twitching of the vibrissae and Straub-tail. […] Animals not presenting any of these behaviors were considered “protected” from seizures. This serves as a screen for in vivo pharmacological activity of test articles or reference anti-epilepsy drugs and defines anti-seizure activity as shown in several publications [Barton M E et al. 2001. Epilepsy Res. 47:217-227; Barton M E et al. 2003 Epilepsy Res. 56:17-26; Brown W C et al. 1953. J Pharmacol Exp Ther 107:273-283. Metcalf C S et al. 2017a. Epilepsia 58:484-493.; Metcalf C S et al. 2017c. Epilepsia 58:239-246.
Unless otherwise indicated pretreatment times of mice or rats were typically 0.5 hours for respective vehicle, Compounds 1, 3, 4, 6 or other compounds administered by subcutaneous or intraperitoneal route (unless other times indicated). A pretreatment time of 1 hour was used for Compounds 3, 4, 6 or other compounds administered by oral route unless other times indicated. Test compounds or respective vehicles were tested in some cases at other pretreatment times as indicated. A median effective dose (ED50) and 95% confidence interval (CI) were calculated using a Prism (Graphpad software). […]

NMDA receptor = assay: Whole cell patch-clamp recording of NMDA induced currents in pyramidal neurons of rat brain prefrontal cortex slices; format: cell-based; conditions: 30 μM; rat brain slice PFC pyramidal neurons; n=4
Method: (§1) Additionally biological activity of compounds as antagonists of AMPA receptors or NMDA receptors (also called ionotropic glutamate-gated ion channels) were conducted using ex vivo functional electrophysiological assays of pyramidal neurons in slices of rat brain prefrontal cortex. Effects of test compounds cf. reference compounds were studied by whole cell patch-clamp electrophysiology recordings of s-AMPA-induced currents or NMDA-induced currents, respectively, using rat brain slice prefrontal cortex (layer V) pyramidal neurons.
Male Sprague Dawley rats were supplied by Charles River Laboratories (Wilmington, Mass. USA) and were housed 4 per cage within a temperature (20.5-23.5° C.) and humidity (30-80%) controlled environment on a 12 hour light/dark cycle with access to food (Teklad Global Soy Protein, Cat. No. T.2920X10, Envigo, Indianapolis, Ind., USA) and water ad libitum. […]
(§2) All test compound experiments were carried out in the voltage-clamp recording configuration of the whole cell patch-clamp technique and all recordings performed at a holding potential of −60 mV. Recordings were monitored on a Dell personal computer (PC) running Axon pClamp software (Molecular Devices, Sunnyvale, Calif., USA) and digitized at 10 kHz. […]

AMPA receptor = assay: Whole cell patch-clamp recording of s-AMPA induced currents in pyramidal neurons of rat brain prefrontal cortex slices; format: cell-based; conditions: rat brain slice PFC pyramidal neurons; n=4 to 5 experiments per concentration; read-out: IC50 of inhibition of peak amplitude responses to 20 μM s-AMPA
Method: as §1
Male Sprague Dawley rats were supplied by Charles River Laboratories (Wilmington, Mass. USA) and were housed 4 per cage within a temperature (20.5-23.5° C.) and humidity (30-80%) controlled environment on a 12 hour light/dark cycle with access to food (Teklad Global Soy Protein, Cat. No. T.2920X10, Envigo, Indianapolis, Ind., USA) and water ad libitum. At 4-6 weeks of age rats were terminally anaesthetized using isofluorane [(1-chloro-2,2,2-trifluoroethyl difluoromethyl ether) supplied by Baxter Healthcare Corp, Deerfield, Ill., USA], and decapitated. The brain was removed and 300 μm thick coronal prefrontal cortex (PFC) or sagittal hippocampal slices were sectioned using a Vibratome microtome. After brain removal, and throughout slicing, the tissue was submerged in ice cold […] cerebrospinal fluid (aCSF). Once slices were cut, they were transferred to a beaker containing aCSF and left at room temperature for a minimum of 1 hour before commencing electrophysiological recordings. After this period, individual slices were transferred to a recording chamber continuously perfused with aCSF at a rate of 4-6 mL/min before commencing experiment protocols. aCSF composition (in mM): NaCl, 127; KCl, 1.9; KH2PO4, 1.2; CaCl2), 2.4; MgCl2, 1.3; NaHCO3, 26; D-glucose, 10; in water equilibrated with 95% Oxygen gas-5% CO2 gas (reagent suppliers listed below). Experiments investigating NMDA currents had aCSF supplemented with 10 μM glycine (reagents suppliers listed below). All experiments were conducted following protocols with the approval of an Institutional Animal Care and Use Committee (IACUC).
Whole cell patch-clamp recordings were performed from Layer V prefrontal cortex pyramidal neurons at room temperature using the ‘visualized’ version of the patch-clamp technique. […]
as §2

IC50 (AMPA receptor)	SMILES	6 Hz Test Results (# mice protected from seizure/# mice tested) ([1]; 13 mg/kg p.o., 1 hour)	inhibition of peak amplitude responses to 50 μM NMDA induced currents (NMDA receptor)	6 Hz Test Results (# mice protected from seizure/# mice tested) ([1]; 13 mg/kg s.c., 0.5 hours)
	O=C(OC1CCCCC1)[C@@H]1C[C@H]2C[C@@](F)(CCc3nn[nH]n3)CC[C@H]2CN1 [Compound 6, cyclohexyl (3S,4aS,6S,8aR)-6-fluoro-6-[2-(1H-1,2,3,4-tetrazol-5-yl)ethyl]-decahydroisoquinoline-3-carboxylate]	8/8		
481 nM	O=C(O)[C@@H]1C[C@H]2C[C@@H](CCc3nn[nH]n3)CC[C@H]2CN1 [Tezampanel, reference compound]		40%+/−2%	
	CCC(CC)COC(=O)[C@@H]1C[C@H]2C[C@@](F)(CCc3nnn[nH]3)CC[C@H]2CN1 [Compound 4, 2-ethylbutyl (3S,4aS,6S,8aR)-6-fluoro-6-[2-(1H-1,2,3,4-tetrazol-5-yl)ethyl]-decahydroisoquinoline-3-carboxylate]	6/7		8/8
	CCOC(=O)[C@@H]1C[C@H]2C[C@@](F)(CCc3nnn[nH]3)CC[C@H]2CN1 [Compound 3, ethyl (3S,4aS,6S,8aR)-6-fluoro-6-[2-(1H-1,2,3,4-tetrazol-5-yl)ethyl]-decahydroisoquinoline-3-carboxylate]	5/8		8/8
